Measurements as given in publication PMC12406664, “New derivatives of 6-nitrocoumarin-3-thiosemicarbazone exhibit improved antiparasitic activity in the placenta against Trypanosoma cruzi and Toxoplasma gondii” (Antimicrobial Agents and Chemotherapy, 2025).

How the values were obtained:
[1] = system: T. cruzi trypomastigotes, Dm28 strain; experiment: Resazurin viability assay on free T. cruzi trypomastigotes; conditions: parasite T. cruzi
Description: The reduction of resazurin sodium salt was used to determine the trypanocidal and toxoplasmicidal activity of the 6-nitrocoumarin-thiosemicarbazone hybrids 1–8. For this, treatment with the compounds was carried out for 24 h at a concentration of 100 µM.
NFX was used as a positive control for T. cruzi, and PMN was used for T. gondii. Untreated parasites served as a negative control. […] Subsequently, parasites with their respective conditions were transferred to a 96-well white fluorescence reading plate, adding resazurin at a final concentration of […] with 0.8 mM phenazine. The plate was incubated for 3 hours at 37°C in a humidified atmosphere with 5% CO2, and fluorescence measurements were taken using a microplate reader (Thermo Scientific Varioskan Flash) at excitation wavelengths of 560 nm and emission wavelengths of 590 nm.

[2] = Cytotoxicity on cells (resazurin), EA.hy926; assay type: cell-based; conditions: human, EA.hy926 endothelial cells
Description: (§1) Triton X-100 was used as a positive control, and untreated cells served as a negative control. In addition, the maximum concentration of DMSO was used as a control for the method. […] The obtained values were expressed as IC50([88]).

[3] = Cytotoxicity on cells (resazurin), BeWo; assay type: cell-based; conditions: human, BeWo trophoblast cells
Description: as §1

[4] = system: T. cruzi (Dm28 strain) in BeWo cells; experiment: Infection of BeWo cells by T. cruzi, infected cells counted by fluorescence microscopy; assay type: cell-based, Trypanosoma cruzi; conditions: compound at IC50, untreated control 24 ± 3
Description: The effect of the compounds on the infection of BeWo trophoblast cells by T. gondii and T. cruzi was assessed. The DNA of T. gondii and T. cruzi was quantified in infected BeWo cells treated for 24 hours under two conditions: co-incubation and post-infection treatment. […] Fluorescence microscopy was employed to quantify the number of infected cells. The resulting images were analyzed using ImageJ software to count both infected and uninfected cells.
For the microscopic analysis of BeWo cells infected with T. cruzi, the cells were washed with PBS to remove the supernatant, fixed with 90% cold methanol, rewashed with PBS, and incubated for 5 minutes with 1 µg/mL—1 4,6-diamidino-2-phenylindole (DAPI) (Molecular Probes). To analyze BeWo cells infected with T. gondii, cells were fixed with 90% cold methanol, washed with PBS containing 0.05% Tween, and blocked using 3% BSA for 1 hour at 37°C. Then, they were incubated with the primary monoclonal antibody Toxoplasma gondii (TP3): sc-52255 at a dilution of 1:500 with 1% BSA overnight at 4°C. […] T. cruzi amastigotes were identified by their morphology, including nuclear size and the presence of a kinetoplast, and were analyzed and quantified using ImageJ. At least 500 cells per condition were analyzed, and infected and non-infected cells were counted for every 100 cells ([35], [70]). […]

[5] = system: T. cruzi (Dm28 strain) in HPE; experiment: T. cruzi DNA load in infected human placental explants (HPE) by real-time qPCR; assay type: cell-based, Trypanosoma cruzi; conditions: IC50 concentration
Description: Cells or HPE were exposed to parasites. […] The following treatment conditions were used in both infection models.

[6] = system: HPE exposed to T. cruzi trypomastigotes; experiment: Histopathology of HPE infected with T. cruzi; assay type: cell-based, human; conditions: co-incubation, IC50 concentration
[7] = system: human placental explants (HPE); experiment: Histopathology of uninfected HPE exposed to the compounds alone; conditions: explants incubated only with the compound, 24 h, IC50 concentration
Description: The HPE was fixed in 10% formaldehyde in 0.1 M phosphate buffer (pH 7.3) for 24 h, dehydrated in alcohol, clarified in xylene, embedded in paraffin, and sectioned at 3 µm. Paraffin histological sections were stained with hematoxylin-eosin for routine histological analysis, Picro Sirius red, and trichromic Masson for collagen histochemistry. Sections for the histological analysis were observed under an optical microscope (Leica DM500) and images were captured with a Leica ICC50 W camera ([7], [91]).

[8] = vs. Ag/AgCl; cited from earlier work
[9] = system: T. cruzi trypomastigotes, Dm28 strain; conditions: read-out: IC50 T. cruzi; cited from earlier work

In the case of CC1CS(=O)(=O)CCN1/N=C/c1ccc([N+](=O)[O-])o1 (stereo not shown) [NFX, nifurtimox, reference compound], the “SI = BeWo CC50/parasite IC50” value [1] is reported as over 30, the “SI = EA.hy926 CC50/parasite IC50” value [1] is reported as 34.9 and the CC50 at 24 h [2] is reported as 348.5 ± 1.2 µM. For the same compound, the CC50 at 24 h [3] was over 300 µM, the “Infected cells (%)” value ([4]; co-incubation 24 h) was 2 ± 1% and the “Infected cells (%)” value ([4]; post-infection treatment 24 h) was 23 ± 4%. For the same compound, the “effect on parasite DNA load” value ([5]; co-incubation) was “managed to reduce the parasitic load”, the “effect on parasite DNA load” value ([5]; post-infection treatment) was “no statistically significant activity” and the “tissue damage in infected HPE (histopathology)” value [6] was “caused tissue damage”. The “tissue damage caused by the compound itself in HPE” value [7] was “caused tissue damage”, the “E(pIIa)” value [8] was −0.70 V and the “E(pIIc)” value [8] was −0.75 V. For the same compound, the IC50 [9] was 10 ± 0.4 µM.
